Test results reported in patent US20230233553A1, “A NEW COMBINATION THERAPY FOR THE TREATMENT OF FGFR3- RELATED SKELETAL DISEASE” (INSERM (INSTITUT NATIONAL DE LA SANTÉ ET DE LA RECHERCHE …, priority 2020, published 2023).

Experiments:
NPR2 [1] = experiment: cGMP production in tibia growth plates using cGi500 FRET sensor; format: cell-based, mouse; details: for cGMP (CFP/YFP emission ratio from cGi500) on perfusion across the growth plate: newborn mouse tibia growth plate; for CNP-induced cGMP increase after FGF treatment: then FGF 80 min, newborn mouse tibia
Procedure: cGMP production in chondrocytes within intact growth plates was measured using tibias dissected from newborn mice (0-1 day old) that globally expressed one or two copies of the cGi500 FRET sensor, as previously described (Shuhaibar et al., 2017).Tibias were dissected and cultured overnight on Millicell membranes in BGJb medium with 0.1% bovine serum albumin, 100 units/ml of penicillin, and 100 μg/ml of streptomycin. In preparation for imaging, each tibia was slit to remove the tissue overlying the growth plate. Where indicated, the tibia was incubated in LB-100, cantharidin, or control medium, followed by addition of FGF18 (0.5 μg/ml+1 μg/ml heparin) or control medium containing heparin only. The tibia was then placed in a perfusion slide and the growth plate was imaged on the stage of a confocal microscope, as previously described (Shuhaibar et al., 2017).
NPR2 activity in chondrocytes of intact growth plates was measured as previously described, using mice expressing a FRET sensor for cGMP, cGi500 (Shuhaibar et al., 2017). Tibias were isolated from newborn mice, and the overlying tissue was excised to expose the growth plate for confocal imaging (Data not shown). When the NPR2 agonist C-type natriuretic peptide (CNP) was perfused across the growth plate, the CFP/YFP emission ratio from cGi500 increased, indicating an increase in cGMP, due to stimulation of the guanylyl cyclase activity of NPR2 (Data not shown).
To investigate if LB-100 counteracts the inactivation of NPR2 by FGF, we used the following protocol:Tibias expressing cGi500 were preincubated with solutions of 1, 5 or 10 μM LB-100 for 60 minutes. FGF was then added and the incubation was continued for an additional 80 minutes. Following these incubations, the tibia was placed in a perfusion slide for confocal imaging, and cGMP production by NPR2 was monitored by measuring the increase in CFP/YFP emission ratio in response to CNP.

[2] = Chung et al., 2017; cited from earlier work
PPPS = target: T1, PPPS (Homo sapiens, UniProt P53041); details: in vitro, DiFMUP as substrate (D'Arcy et al., 2019); cited from earlier work
T1 sequence (P53041 1-499): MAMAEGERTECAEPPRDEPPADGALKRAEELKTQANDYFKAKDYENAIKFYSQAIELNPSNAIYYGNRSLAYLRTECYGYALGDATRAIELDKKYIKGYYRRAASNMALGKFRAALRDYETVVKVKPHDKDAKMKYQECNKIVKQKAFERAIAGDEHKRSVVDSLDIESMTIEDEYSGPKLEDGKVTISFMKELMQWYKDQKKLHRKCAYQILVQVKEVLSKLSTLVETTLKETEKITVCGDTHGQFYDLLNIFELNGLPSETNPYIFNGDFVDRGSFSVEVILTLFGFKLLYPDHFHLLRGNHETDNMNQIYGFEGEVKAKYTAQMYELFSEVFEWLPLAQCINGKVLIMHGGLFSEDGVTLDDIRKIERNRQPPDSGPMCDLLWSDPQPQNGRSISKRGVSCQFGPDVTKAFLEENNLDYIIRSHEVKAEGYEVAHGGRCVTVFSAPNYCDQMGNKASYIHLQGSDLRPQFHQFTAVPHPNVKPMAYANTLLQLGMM

PPP2 = PPP2 (Homo sapiens, UniProt P67775); details: in vitro, DiFMUP as substrate (D'Arcy et al., 2019); cited from earlier work
Sequence of PPP2 (P67775 whole entry): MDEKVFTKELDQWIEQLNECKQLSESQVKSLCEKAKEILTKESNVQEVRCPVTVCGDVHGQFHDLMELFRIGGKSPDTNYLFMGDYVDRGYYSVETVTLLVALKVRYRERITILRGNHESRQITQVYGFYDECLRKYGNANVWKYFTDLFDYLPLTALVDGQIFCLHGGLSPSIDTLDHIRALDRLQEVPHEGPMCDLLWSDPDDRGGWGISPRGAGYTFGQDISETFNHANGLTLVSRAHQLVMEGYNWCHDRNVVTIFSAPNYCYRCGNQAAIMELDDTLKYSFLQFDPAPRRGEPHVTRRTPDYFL

NPR2 [3] = experiment: Phos-tag gel electrophoresis / western blot of NPR2 in rib chondrocyte cultures; format: cell-based, mouse
Procedure: Rib cages were dissected from newborn (0-2 day old) mice, and trimmed to remove the skin, spinal cord, and soft tissue around the sternum and ribs. Non-chondrocyte tissue was digested away by incubating the rib cages in 2 mg/ml pronase in PBS for one hour in a shaking water bath at 37° C., and then incubated in 3 mg/ml collagenase D in medium for one hour. After washing, the rib cages were transferred to a dish with fresh collagenase D and incubated for 5-6 hours, with trituration at 2 hours, to release the chondrocytes. The isolated cells were passed through a 40 um nylon cell strainer, resuspended in DMEM/F12 medium with 10% fetal bovine serum, 100 units/ml of penicillin, and 100 μg/m1 of streptomycin, and plated in 35 mm tissue culture dishes, at a cell density corresponding to one newborn mouse per plate. The cells were cultured for 3 days, at which point they were ˜75-90% confluent, then washed with PBS and incubated in serum-free medium for 18 hours. The cells were then incubated in LB-100 (10 μM), or control medium, followed by addition of FGF18 (0.5 ug/ml+1 μg/ml heparin) or control medium containing heparin only.
At end of the incubation period, dishes were washed in PBS and cells lysed in 250 μl of 1% SDS containing 10 mM sodium fluoride, 1 μM microcystin, and Roche protease inhibitor cocktail. Protein content was determined by a BCA assay. […]

Fgfr3^Y367C/+ femurs = experiment: Ex vivo culture of fetal femurs from Fgfr3^Y367C/+ mice (growth in length and area); format: cell-based, mouse; details: E16.5 Fgfr3^Y367C/+ femurs, 6 day culture; BMN-111 0.1 μM, LB-100 10 μM
Procedure: (§1) FIG. 1. LB-100 and BMN-111 act synergistically to stimulate growth in fetal femurs from Fgfr3^Y367C/+ mice.(A) Diagram showing sites of action of LB-100 and BMN-111. (B) Representative photographs of fetal femurs from E16.5 day old Fgfr3+/+ (wildtype) and Fgfr3^Y367+ mice, before (D0) and after a 6 day (D6) culture with the indicated treatments. […] For all experiments, the concentration of BMN-111 was 0.1 μM, and the concentration of LB-100 was 10 μM. Symbols in graphs C-E indicate individual bones (n=4−10). Bars represent mean ±SEM and data were analyzed by unpaired two-tailed t-tests. Asterisks indicate significant differences (p<0.05) between indicated groups; n.s. indicates no significant difference (p>0.05).
(§2) Femurs were cultured ex vivo, as described previously (Jonquoy et al., 2012; Lorget et al., 2012). The left femur was cultured in the presence of LB-100 (10 μM), BMN-111 (0.1 μM), or LB-100 (10 μM)+BMN-111 (0.1 μM), and compared with the non-treated right femur. The bone's length was measured on day 0 (D0) and day 6 (D6). Images were captured with an Olympus SZX12 stereo microscope and quantified using cellSens software (Olympus). The results were expressed as the increase in femur length or area (D6-D0) in the presence or absence of LB-100, BMN-111, or LB-100+BMN-111.

PPP1 = details: same conditions, DiFMUP; Richard Honkanen, personal communication; cited from earlier work
NPR2 [4] = details: cantharidin 100 μM (Shuhaibar et al., 2017); cited from earlier work
[5] = tested on: children 5 to 14 years of age with achondroplasia; details: for up to 42 months; Savarirayan et al., 2019; cited from earlier work
[6] = tested on: growth plates of Fgfr3^Y367C/+ femurs; experiment: Histology and immunohistochemistry of growth plates of ex vivo cultured Fgfr3^Y367C/+ femurs; format: cell-based, mouse
Procedure: FIG. 2. Dual action of LB-100 and BMN-111 improves chondrocyte differentiation in growth plates of ex-vivo cultured Fgfr3^Y367C/+ femurs. Mean area of individual hypertrophic chondrocytes in proximal growth plates of femurs treated (n=4−6 bones measured for each condition, with 54-137 cells measured for each bone). Data were analyzed by one-way ANOVA followed by the Holm-Sidak multiple comparison test (*p<0.05, **p<0.01, ****p<0.0001).
Fetal femur (E16.5) explants were fixed in 4% paraformaldehyde, decalcified with EDTA (0.4 M), and embedded in paraffin. Serial 5 μm sections were stained with hematoxylin-eosin-safran (HES) reagent, using standard protocols. For immunohistochemical assessment, sections were labeled with the following antibodies and a Dako Envision Kit: anti-COL X (BIOCYC, N.2031501005; 1:50 dilution), anti-phosphorylated ERK1-2 ([…]) (Cell Signaling Technology, #4370; 1:100 dilution), and anti-S0X9 (polyclonal antibody, Santa Cruz Biotechnology Inc., catalog D0609; dilution 1:75). Images were captured with an Olympus PD70-IX2-UCB microscope and quantified using cellSens software.
We measured the total area occupied by chondrocytes within the whole growth plate and the area occupied by COLX-positive chondrocytes. The area for proliferating chondrocytes was calculated by subtracting the COLX-positive area from the whole growth plate area.

Fgfr3+/+ femurs = experiment: Ex vivo culture of fetal femurs from Fgfr3+/+ mice (growth in length and area); format: cell-based, mouse; details: BMN-111 0.1 μM, LB-100 10 μM, 6 day culture
Procedure: as §1, §2

## CCN(CC)/[N+]([O-])=N/O [DEA/NO]
NPR2 [1]
  cGMP (CFP/YFP emission ratio from cGi500) on perfusion across the growth plate: did not increase cGMP

## CN1CCN(C(=O)C2C3CCC(O3)C2C(=O)O)CC1 (stereo not drawn) [LB-100, 3-(4-methylpiperazine-1-carbonyl)-7-oxabicyclo[2.2.1]heptane-2-carboxylic acid]
[2]
  Toxicity in phase I clinical trial: little toxicity
PPPS
  IC50: 1820 ± 93 nM
PPP2
  IC50: 390 ± 13 nM
NPR2 [3]; 1 hour incubation with 10 μM LB-100
  Cell morphology of rib chondrocytes: did not cause any visible change in cell morphology
NPR2 [3]; preincubation with 10 μM LB-100, primary rib chondrocytes
  NPR2 dephosphorylation in response to FGF: only partial
NPR2 [1]; 1 μM LB-100 preincubation 60 min
  CNP-induced cGMP increase after FGF treatment: had no effect
NPR2 [1]; 5 μM LB-100 equivalent to 10 μM cantharidin
  Effectiveness in counteracting NPR2 inactivation by FGF compared with cantharidin: more effective than cantharidin
NPR2 [1]; 5 μM LB-100 preincubation 60 min
  CNP-induced cGMP increase after FGF treatment: enhanced
NPR2 [1]; 10 μM LB-100, confocal microscopy
  Chondrocyte morphology in live growth plate (toxicity): no visible change in chondrocyte morphology
NPR2 [1]; 10 μM LB-100 preincubation 60 min
  CNP-induced cGMP increase after FGF treatment: enhanced
Fgfr3^Y367C/+ femurs
  Mean rate of increase in bone length relative to vehicle/untreated bones (growth rate ratio): 1.04
  Rate of increase of total bone and cartilage area relative to control (growth rate ratio): 1.40
PPP1
  IC50: 1800 ± 22 nM

## C[C@@]12C(=O)OC(=O)[C@]1(C)[C@H]1CC[C@@H]2O1 [cantharidin]
NPR2 [4]
  Inactivation of NPR2 in growth plate chondrocytes by FGF: inhibits the inactivation of NPR2 in growth plate chondrocytes by FGF

## ANP: A-type natriuretic peptide, which activates the NPR1 guanylyl cyclase
NPR2 [1]
  cGMP (CFP/YFP emission ratio from cGi500) on perfusion across the growth plate: did not increase cGMP

## [Cyc(23,39)]H2NPGQEHPNARKYKGANKKGLSKGCFGLKLDRIGSMSGLGC—OH [BMN-111]
NPR2 [1]; BMN-111 0.1 μM
  NPR2 activity in growth plate chondrocytes: stimulated NPR2 activity
Fgfr3^Y367C/+ femurs
  Mean rate of increase in bone length relative to vehicle/untreated bones (growth rate ratio): 1.77
  Rate of increase of total bone and cartilage area relative to control (growth rate ratio): 1.51
[5]
  Annualized growth velocity in phase 2: sustained increase in annualized growth velocity
[6]; COLX immunostaining, ex vivo cultured femurs
  Size of Fgfr3^Y367C/+ hypertrophic chondrocytes: increased the size
[6]; Fgfr3^Y367C/+ femurs, average
  Increase of total proliferative growth plate area of the femur over vehicle: 20%
Fgfr3+/+ femurs
  Rate of bone growth (length and area): increased the rate of bone growth

B1: FGF18: fibroblast growth factor used with heparin to activate FGF receptor (protein, UniProt O76093 28-207, looked up)
Fibroblast growth factor 18: EENVDFRIHVENQTRARDDVSRKQLRLYQLYSRTSGKHIQVLGRRISARGEDGDKYAQLLVETDTFGSQVRIKGKETEFYLCMNRKGKLVGKPDGTSKECVFIEKVLENNYTALMSAKYSGWYVGFTKKGRPRKGPKTRENQQDVHFMKRYPKGQPELQKPFKYTTVTKRSRRIRPTHPA
NPR2 [1]; FGF18 0.5 μg/ml + 1 μg/ml heparin
  cGMP increase in response to CNP perfusion after exposure to FGF18: suppressed the cGMP increase in response to CNP perfusion
